Usually ΔTm stands for the shift of the melting midpoint relative to a reference. Broadly, the Kd is the concentration at which binding is half-saturated. For orientation: CC50 means the concentration at which the toxic effect on the cells reaches its halfway point. Read a low CC50 as greater toxicity to the cells.

This is an account of results in article PMC4183655, “Discovery and Optimization of Small-Molecule Ligands for the CBP/p300 Bromodomains” (Journal of the American Chemical Society, 2014).

The structures appear in SMILES notation. Like-named read-outs stand apart in the source and are kept apart here.

In series [1] the target is T1, CBP (Homo sapiens, UniProt Q92793). Put plainly: DSF (ΔTm) thermal stability assay. The class given is binding. Conditions: compound concentration 10 μM, mean ± SEM (number of measurements).
T1 sequence (Q92793 1085-1192 limits assumed): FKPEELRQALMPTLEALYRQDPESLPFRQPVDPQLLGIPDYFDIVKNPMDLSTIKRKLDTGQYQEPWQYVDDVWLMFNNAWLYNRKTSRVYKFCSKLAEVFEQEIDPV
Series [2] addresses T2, BRD4(1) (Homo sapiens, UniProt O60885). Nature of the series: DSF (ΔTm) thermal stability assay. The class given is binding. Conditions: compound concentration 10 μM, mean ± SEM (number of measurements).
In series [3] the target is T3, BRD9 (Homo sapiens, UniProt Q9H8M2).
T3 construct: using recombinant BRDs as surrogates of full-length protein
T3 sequence (Q9H8M2 136-240 limits assumed): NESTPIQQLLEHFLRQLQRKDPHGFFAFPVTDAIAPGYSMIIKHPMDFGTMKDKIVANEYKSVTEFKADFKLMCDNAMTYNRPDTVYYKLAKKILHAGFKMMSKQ
Nature of the series: DSF (ΔTm) selectivity panel. Particulars: compound 10 µM. The class given is binding.

The target of series [4] is T1, CBP. Nature of the series: Peptide displacement AlphaScreen. In kind it is binding.
Series [5] deals with T2, BRD4(1). Nature of the series: Peptide displacement AlphaScreen. In kind it is binding. A general note: In Alpha technology, singlet oxygen from a donor bead excites a nearby acceptor bead.
The target in series [6] is T3, BRD9. Nature of the series: Peptide displacement AlphaScreen. In kind it is binding.
For series [7], the target named is T4, ATAD2 (Homo sapiens, UniProt Q6PL18).
T4 construct: using recombinant BRDs as surrogates of full-length protein
T4 sequence (Q6PL18 980-1092 limits assumed): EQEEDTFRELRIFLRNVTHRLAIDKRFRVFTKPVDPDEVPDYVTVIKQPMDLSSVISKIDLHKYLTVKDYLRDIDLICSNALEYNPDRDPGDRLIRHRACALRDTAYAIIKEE
Nature of the series: DSF (ΔTm) thermal stability assay. The class given is binding. Particulars: compound 10 µM.

The target of series [8] is T4, ATAD2. Nature of the series: Peptide displacement AlphaScreen. In kind it is binding.
Series [9] concerns the target T5, p300 (Homo sapiens, UniProt Q09472).
T5 sequence (Q09472 1049-1156 limits assumed): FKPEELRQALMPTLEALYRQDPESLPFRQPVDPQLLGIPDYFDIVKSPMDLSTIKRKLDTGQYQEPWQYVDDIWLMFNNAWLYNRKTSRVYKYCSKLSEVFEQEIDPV
Put plainly: Isothermal titration calorimetry (ITC).

In series [10] the target is T2, BRD4(1). Nature of the series: Isothermal titration calorimetry (ITC). For orientation: In ITC the heat of successive injections is recorded.
Series [11] deals with GFP-tagged 3 × CBP BRD construct. Put plainly: Fluorescence recovery after photo-bleaching (FRAP) assay. Particulars: HeLa cells, SAHA-treated, compound 0.1 μM.
Series [12] concerns the target CBP BRD. Particulars: cited from earlier work.
Series [13] deals with p53–CBP interaction. Particulars: at 50 μM; cited from earlier work.
The target of series [14] is T6, BAZ2A (Homo sapiens, UniProt Q9UIF9).
T6 construct: using recombinant BRDs as surrogates of full-length protein
T6 sequence (Q9UIF9 1793-1897 limits assumed): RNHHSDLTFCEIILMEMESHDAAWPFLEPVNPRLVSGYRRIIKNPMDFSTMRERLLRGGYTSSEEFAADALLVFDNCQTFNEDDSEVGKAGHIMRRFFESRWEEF
Put plainly: DSF (ΔTm) thermal stability assay. In kind it is binding. Conditions: compound 10 µM.

Series [15] deals with T6, BAZ2A. Nature of the series: Peptide displacement AlphaScreen. The class given is binding.
The target of series [16] is T5, p300. Put plainly: DSF (ΔTm) thermal stability assay. The class given is binding. Particulars: compound 10 µM.
Series [17] addresses T7, CECR2 (Homo sapiens, UniProt Q9BXF3).
T7 construct: using recombinant BRDs as surrogates of full-length protein
Put plainly: DSF (ΔTm) selectivity panel. In kind it is binding. Conditions: compound 10 µM.

Series [18] addresses T5, p300. Nature of the series: Peptide displacement AlphaScreen. In kind it is binding.
For series [19], the target named is T7, CECR2. Nature of the series: Peptide displacement AlphaScreen. The class given is binding.
The target in series [20] is T1, CBP. Nature of the series: Isothermal titration calorimetry (ITC).
For series [21], the target named is T8, BRD2(1) (Homo sapiens, UniProt P25440).
T8 construct: using recombinant BRDs as surrogates of full-length protein
T8 sequence (P25440 74-180 limits assumed): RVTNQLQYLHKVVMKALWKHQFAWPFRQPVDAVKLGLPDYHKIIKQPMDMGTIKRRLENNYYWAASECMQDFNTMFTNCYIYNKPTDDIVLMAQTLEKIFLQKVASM
Put plainly: DSF (ΔTm) selectivity panel. The class given is binding. Conditions: compound 10 µM.

The target of series [22] is T9, BRD3(1) (Homo sapiens, UniProt Q15059).
T9 construct: using recombinant BRDs as surrogates of full-length protein
T9 sequence (Q15059 34-140 limits assumed): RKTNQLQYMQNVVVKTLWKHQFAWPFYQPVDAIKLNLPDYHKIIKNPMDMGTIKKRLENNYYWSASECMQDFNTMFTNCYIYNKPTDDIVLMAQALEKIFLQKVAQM
Put plainly: DSF (ΔTm) selectivity panel. In kind it is binding. Conditions: compound 10 µM.

Series [23] deals with p53-driven luciferase activity in RKO cells. Nature of the series: p53 luciferase reporter assay. The class given is cell-based, human. Particulars: compound 24 h then doxorubicin 0.3 μM 16 h, read-out: Inhibition of doxorubicin-induced p53-driven luciferase activity IC50. The procedure: Refinement was carried out in
refinement cycles. […] The
Cell culture and reagents
Fluorescence Recovery After Photobleaching (FRAP) Assay
In brief RKO cells were transfected with
well plate format using Fugene HD (Roche).
Compounds were dissolved in dimethyl sulfoxide
5 ul of compound solution was added
mixing plates returned to the incubator.
(A reporter such as luciferase makes a cellular process visible.)

Series [24] can be described thus: Human liver microsome (HLM) stability assay. The class given is in vitro ADME. Particulars: microsomes, 1 h.
For series [25], the target named is T10, alpha 2C (h) (Homo sapiens, UniProt P18825).
T10 construct: CEREP (BioPrint Full Panel, contract assay)
T10 sequence (P18825 whole entry): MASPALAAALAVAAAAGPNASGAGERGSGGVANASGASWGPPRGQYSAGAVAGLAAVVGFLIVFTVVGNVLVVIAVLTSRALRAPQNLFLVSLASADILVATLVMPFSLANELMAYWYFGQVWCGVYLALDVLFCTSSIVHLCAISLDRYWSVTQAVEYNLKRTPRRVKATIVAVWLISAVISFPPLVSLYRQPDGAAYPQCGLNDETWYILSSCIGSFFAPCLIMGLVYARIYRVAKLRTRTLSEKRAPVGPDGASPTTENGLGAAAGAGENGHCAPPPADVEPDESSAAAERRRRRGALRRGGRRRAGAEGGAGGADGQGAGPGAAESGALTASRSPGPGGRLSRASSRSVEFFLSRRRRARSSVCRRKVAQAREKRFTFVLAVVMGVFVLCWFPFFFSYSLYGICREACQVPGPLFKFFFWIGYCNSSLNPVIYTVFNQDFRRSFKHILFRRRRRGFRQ
Nature of the series: Cerep profiling, antagonist radioligand. The class given is binding.

For series [26], the target named is T11, PDE5 (h) (non-selective) (Homo sapiens, UniProt O76074).
T11 construct: CEREP (BioPrint Full Panel, contract assay)
Nature of the series: Cerep profiling. The class given is biochemical.

The target of series [27] is T12, alpha 2A (h) (Homo sapiens, UniProt P08913).
T12 construct: CEREP (BioPrint Full Panel, contract assay)
T12 sequence (P08913 whole entry): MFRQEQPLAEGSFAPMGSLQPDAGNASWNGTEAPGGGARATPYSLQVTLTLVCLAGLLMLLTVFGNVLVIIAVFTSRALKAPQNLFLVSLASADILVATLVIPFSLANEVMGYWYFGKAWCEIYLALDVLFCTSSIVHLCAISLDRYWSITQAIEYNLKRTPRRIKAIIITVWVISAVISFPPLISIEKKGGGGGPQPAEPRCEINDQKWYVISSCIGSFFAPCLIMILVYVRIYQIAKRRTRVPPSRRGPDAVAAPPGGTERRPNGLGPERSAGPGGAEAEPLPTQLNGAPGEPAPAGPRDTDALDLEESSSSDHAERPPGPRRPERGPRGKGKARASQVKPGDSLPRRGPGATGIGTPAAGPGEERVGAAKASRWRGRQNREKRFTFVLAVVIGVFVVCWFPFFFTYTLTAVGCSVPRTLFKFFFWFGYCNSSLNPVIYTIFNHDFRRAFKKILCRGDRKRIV
Nature of the series: Cerep profiling, antagonist radioligand. In kind it is binding.

Series [28] is described as follows: Cytotoxicity assay. Conditions: human, U2OS osteosarcoma cells.
Series [29] addresses PAF (h) (Homo sapiens, UniProt P25105). Put plainly: Cerep profiling, agonist radioligand.
For series [30], the system named is p53-induced p21 activation. Conditions: luciferase reporter-gene assay; read-out: Inhibition of p53-induced p21 activation IC50; cited from earlier work.

T7 sequence (Q9BXF3 434-538 limits assumed): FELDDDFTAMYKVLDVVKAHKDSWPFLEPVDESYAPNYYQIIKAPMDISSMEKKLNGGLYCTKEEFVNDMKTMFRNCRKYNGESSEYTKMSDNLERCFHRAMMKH
Chain of PAF (h) (P25105 whole entry): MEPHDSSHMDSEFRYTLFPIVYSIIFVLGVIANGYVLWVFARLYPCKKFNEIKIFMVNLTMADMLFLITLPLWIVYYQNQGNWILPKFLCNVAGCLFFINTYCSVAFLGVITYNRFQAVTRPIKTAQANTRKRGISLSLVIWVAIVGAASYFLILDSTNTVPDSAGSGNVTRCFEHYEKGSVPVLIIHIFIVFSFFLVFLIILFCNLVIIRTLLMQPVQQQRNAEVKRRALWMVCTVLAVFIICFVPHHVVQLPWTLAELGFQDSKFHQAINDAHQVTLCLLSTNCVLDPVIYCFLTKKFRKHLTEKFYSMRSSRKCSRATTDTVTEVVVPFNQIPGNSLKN

For `Cc1noc(C)c1-c1ccc2c(c1)nc(CCc1ccccc1)n2CCN1CCCC1` [Compound 15], the ΔTm at 10 µM in series [1] was determined as 5.4 °C; in series [2] it was 2.7 °C; in series [3], 1.5 °C. Besides, the IC50 worked out at 0.84 µM in series [4] (read-out: AlphaScreen IC50 CBP), 9.1 µM in [5] and 100 µM in series [6].
Take `Cc1noc(C)c1-c1ccc2c(c1)nc(CCc1ccccc1)n2CCN1CCOCC1` [Compound 17]: the ΔTm at 10 µM stood at 3.9 °C in [1], 2.1 °C in series [2] and 0.16 °C in [7]. Further, the “DSF ΔTm CBP” value in series [1] (10 µM) was 6.5 °C. In [2] (10 µM), the “DSF ΔTm BRD4(1)” value was 2.7 °C. In addition, the IC50 in [4] (mean ± SEM (number of measurements), read-out: CBP AlphaScreen pIC50 (converted)) is 0.158 µM; in series [4] (read-out: AlphaScreen IC50 CBP), 0.82 µM; in [5] it was 9.8 µM; in series [8], 42 µM. In addition, in series [9] (from ITC Kd values), the “Selectivity for p300 over BRD4(1)” value turned out to be 2.7 fold. This compound also yielded a Kd in [10] (ITC Kd BRD4(1), 15 °C) of 0.95 ± 0.044 µM. The “Selectivity for CBP over BRD4(1)” value in series [10] (from ITC Kd values) came to 3.0 fold. In addition, the “FRAP half-time of fluorescence recovery (t1/2), GFP-tagged 3× CBP BRD” value in series [11] came out at 0.66 s.
With `CC(=O)n1c2c(c3ccccc31)CCCC2=O` [Compound 1], the Kd in [12] is 19.6 µM. Also, the “Effect on the p53–CBP interaction in a competition assay” value in [13] is recorded as “block”.
`Cc1noc(C)c1-c1ccc2c(c1)nc(CCc1ccccc1)n2CCN1CCN(C)CC1` [Compound 18]: the ΔTm at 10 µM in [1] is 2 °C; in series [2] it was 1.2 °C; in [7], 0.03 °C; in series [14], -0.52 °C. Besides, the IC50 in [4] (read-out: AlphaScreen IC50 CBP) amounted to 2 µM; in series [5], 4.1 µM; in series [8] it was 19 µM; in series [15] it was 14 µM.
With `Cc1noc(C)c1-c1ccc2c(c1)nc(CCc1ccccc1)n2CCN1CCCCC1` [Compound 16], the ΔTm at 10 µM in [1] came to 6.5 °C; in series [2], 2.7 °C; in series [16], 7.9 °C; in [17] it was 1 °C. Also, the IC50 in series [4] (read-out: AlphaScreen IC50 CBP) is 0.18 µM; in [5] it was 2.4 µM; in [18], 0.14 µM; in series [6] it was more than 25 µM; in series [19] it was 12 µM. In addition, the “ITC N (molar binding ratio of the ligand-protein interaction), CBP” value in series [20] is recorded as 1.00 ± 0.00223. In addition, in series [20], the “ITC ∆G, CBP” value was -36.2 kJ/mol. Besides, in series [20], the “ITC ∆H, CBP” value was -24.1 ± 0.077 kJ/mol. Further, in series [20] (At T = 298.15 K), the “ITC 9T∆S, CBP” value was -12.1 kJ/mol. Moreover, the Kd in series [20] (ITC Ka, CBP) is 0.323 µM; in series [9], 0.347 µM; in series [10] (ITC Ka, BRD4(1)), 0.952 µM. Further, the “ITC N (molar binding ratio of the ligand-protein interaction), p300” value in [9] amounted to 1.00 ± 0.0028. Besides, the “ITC ∆G, p300” value in [9] was -36 kJ/mol. Further, in [9], the “ITC ∆H, p300” value was -25.5 ± 0.103 kJ/mol. Also, the “ITC 9T∆S, p300” value in series [9] (At T = 298.15 K) was -10.5 kJ/mol. In series [10], the “ITC N (molar binding ratio of the ligand-protein interaction), BRD4(1)” value was 1.10 ± 0.005. For the same compound, the “ITC ∆G, BRD4(1)” value in series [10] was -33.5 kJ/mol. For the same compound, in series [10], the “ITC ∆H, BRD4(1)” value was -24.5 ± 0.141 kJ/mol. Besides, in [10] (At T = 298.15 K), the “ITC 9T∆S, BRD4(1)” value was -9 kJ/mol.
For the compound `COc1ccc(CCc2nc3cc(-c4c(C)noc4C)ccc3n2C[C@H](C)N2CCOCC2)cc1Cl` [Compound 59], the ΔTm at 10 µM in [2], in [21] and in series [22] was 1 to 2 °C throughout. For the same compound, the IC50 is 1.54 µM in series [23] (Homo sapiens, RKO); 1.5 µM in [23]; 0.11 µM in series [25]; 0.15 µM in series [26]; 0.57 µM in series [27]; 0.54 µM in series [29]. Further, in [24], the “HLM stability: compound detected after 60 min” value is “no compound was detected”. Further, it took 80 µM to reach half-maximal cytotoxicity in series [28] (CC50 at 24 h). This compound gave a CC50 at 72 h in [28] of 8.1 µM. The “FRAP half-time of fluorescence recovery (t1/2), GFP-tagged 3× CBP BRD” value in series [11] is 0.60 s.
With `Cc1cc(/N=N/c2cc(S(=O)(=O)O)c(C)cc2C)c(N)cc1O` [Compound 2], the IC50 in series [30] is 5 µM.
